In ChEMBL document CHEMBL4665707, “Lung Protection by Cathepsin C Inhibition: A New Hope for COVID-19 and ARDS?” (J Med Chem, 2020):

Key:
Dipeptidyl peptidase 1 = Dipeptidyl peptidase 1 (Homo sapiens, UniProt P53634); experiment: Inhibition of human cathepsin C
[1] = Reduction in whole blood neutrophil elastase activity in healthy human subjects at 10 mg dosed daily via oral route; assay type: functional
[2] = Reduction in whole blood neutrophil elastase activity in healthy human subjects at 25 mg dosed daily via oral route; assay type: functional
[3] = Reduction in whole blood neutrophil elastase activity in healthy human subjects at 40 mg dosed daily via oral route; assay type: functional

Sequence of Dipeptidyl peptidase 1 (P53634 25-134 limits assumed): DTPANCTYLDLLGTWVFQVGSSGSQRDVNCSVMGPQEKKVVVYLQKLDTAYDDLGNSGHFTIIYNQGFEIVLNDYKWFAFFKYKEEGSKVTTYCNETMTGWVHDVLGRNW
Sequence of Dipeptidyl peptidase 1 (P53634 231-394 limits assumed): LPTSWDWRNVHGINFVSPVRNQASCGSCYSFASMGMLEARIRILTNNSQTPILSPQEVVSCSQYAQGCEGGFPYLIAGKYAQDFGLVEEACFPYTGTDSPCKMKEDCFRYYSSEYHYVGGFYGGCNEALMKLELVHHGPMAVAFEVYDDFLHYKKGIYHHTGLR
Sequence of Dipeptidyl peptidase 1 (P53634 395-463 limits assumed): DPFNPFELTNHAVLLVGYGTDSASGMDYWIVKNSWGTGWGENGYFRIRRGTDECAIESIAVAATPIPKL

Structure (SMILES)	IC50 (Dipeptidyl peptidase 1) [µM]	inhibition (INH) [1] [%]	inhibition (INH) [2] [%]	inhibition (INH) [3] [%]
CC[C@H](N)C(=O)N[C@]1(C#N)C[C@@H]1c1ccc(-c2ccc(S(=O)(=O)N3CCN(C)CC3)cc2)cc1	0.015	–	–	–
Cn1c(=O)oc2ccc(-c3ccc(C[C@@H](C#N)NC(=O)[C@@H]4CNCCCO4)cc3)cc21 [BRENSOCATIB]	–	30	49	59
